Values joined by “and” are separate entries in the source; they are usually repeats but may differ in a detail not shown here. Equal entries are not always repeated.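 Test compounds were applied to cells in 96-well plates for 48 hours at 5 doses. GI50 marks 50% less growth. TGI denotes the concentration required for complete inhibition of growth.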
Assays:
Assay in all cases: NCI tumour cell line growth inhibition, 48 h
TK-10 renal = system: TK-10 renal
HT29 colon = system: HT29 colon
SK-OV-3 ovarian = system: SK-OV-3 ovarian
NCI-H226 lung = system: NCI-H226 lung
NCI-H23 lung = system: NCI-H23 lung
SN12C renal = system: SN12C renal
UO-31 renal = system: UO-31 renal
SF-295 CNS = system: SF-295 CNS
SK-MEL-28 melanoma = system: SK-MEL-28 melanoma
SW-620 colon = system: SW-620 colon

Compound	TGI (TK-10 renal)	TGI (HT29 colon)	TGI (SK-OV-3 ovarian)	TGI (NCI-H226 lung)	TGI (NCI-H23 lung)	TGI (SN12C renal)	TGI (UO-31 renal)	TGI (SF-295 CNS)	TGI (SK-MEL-28 melanoma)	TGI (SW-620 colon)	GI50 (TK-10 renal)	GI50 (HT29 colon)	GI50 (SK-OV-3 ovarian)	GI50 (NCI-H226 lung)	GI50 (NCI-H23 lung)	GI50 (SN12C renal)	GI50 (UO-31 renal)	GI50 (SF-295 CNS)	GI50 (SK-MEL-28 melanoma)	GI50 (SW-620 colon)
CN(C)c1ccc2c(c1)C(=O)N(OS(=O)(=O)c1ccc([N+](=O)[O-])cc1)C2=O	> 100 µM	47.6 µM	> 100 µM	> 100 µM	64 µM	56.4 µM	60.9 µM	62.7 µM	63.9 µM	46.8 µM	–	–	–	–	–	–	–	–	–	–
CC(=O)N1CCN(C2=Nc3ccccc3CO2)C1=S	> 100 µM	> 100 µM	> 100 µM	> 100 µM	> 100 µM	> 100 µM	> 100 µM	> 100 µM	> 100 µM	> 100 µM	> 100 µM	89.6 µM	> 100 µM	> 100 µM	> 100 µM	> 100 µM	> 100 µM	43.1 µM	> 100 µM	92.5 µM
CCC[CH2][Sn]([CH2]CCC)([O]C(=O)c1c(F)cccc1F)[O]C(=O)c1c(F)cccc1F	2.13 µM	2.87 µM	3.24 µM	3.32 µM	1.6 µM	2.03 µM	2.59 µM	2.9 µM	1.87 µM	1.23 µM	0.956 µM	1.52 µM	1.82 µM	1.89 µM	0.439 µM	0.777 µM	1.31 µM	1.56 µM	0.599 µM	0.32 µM
Cc1nc2ccc(CN(C)c3ccc(C(=O)N[C@@H](CCC(=O)O)C(=O)O)s3)cc2c(=O)[nH]1	> 100 µM	> 100 µM	> 100 µM	> 100 µM	> 100 µM	> 100 µM	> 100 µM	> 100 µM	> 100 µM	> 100 µM	–	–	–	–	2.62 µM	–	< 0.01 µM	–	–	–
Cc1nc2sccn2c1/C=C1/C(=O)Nc2ccccc21	> 78.1 µM	> 100 µM	> 93.3 µM	> 100 µM	> 100 µM	> 100 µM	> 100 µM	> 26.5 µM	> 100 µM	> 100 µM	6.55 µM	2.81 µM	24 µM	23.9 µM	> 30.3 µM	5.69 µM	18.7 µM	3.01 µM	> 28.5 µM	3.06 µM
FC(F)(F)C1(Cl)C(c2ccccc2)=C1c1ccccc1	35.4 µM	29.3 µM	32.4 µM	29.2 µM	29.3 µM	29.3 µM	31.9 µM	28.1 µM	28.1 µM	27 µM	–	–	–	–	–	–	–	–	–	–
C=C1C(=O)O[C@H]2[C@H]1CC/C(CNC(=O)/C=C/c1ccc(Br)cc1)=C\CC[C@@]1(C)O[C@@H]21	2.58 µM	2.66 µM	12.5 µM	7.15 µM	3.05 µM	3.58 µM	2.19 µM	5.81 µM	2.7 µM	1.77 µM	1.24 µM	0.622 µM	3.89 µM	2.24 µM	1.41 µM	1.22 µM	0.97 µM	2.16 µM	1.34 µM	0.444 µM
CC(=O)C1=C(O)C=C2Oc3c(C(=O)/C=C/c4cc(C(F)(F)F)cc(C(F)(F)F)c4)c(O)c(C)c(O)c3[C@]2(C)C1=O	8.23 µM	1.71 µM	5.98 µM	5.15 µM	2.87 µM	2.02 µM	2.05 µM	4.76 µM	2.96 µM	2.19 µM	0.587 µM	0.535 µM	1.07 µM	2.34 µM	0.528 µM	0.513 µM	0.438 µM	0.627 µM	0.747 µM	0.553 µM
C(=Nc1ccccc1)C1CCCC[N-]1.C(=Nc1ccccc1)C1CCCC[N-]1.[Cu+2].[O-][Cl+3]([O-])([O-])O (configuration not stated)	32.7 µM	30.8 µM	35.8 µM	50 µM	33.2 µM	36.1 µM	> 94.3 µM	18.8 µM	48.5 µM	32.4 µM	9.8 µM	15.5 µM	0.704 µM	21.6 µM	15.1 µM	15.4 µM	12.6 µM	3.13 µM	20.5 µM	10.4 µM
CC(C)=CCN=C(N)N	> 100 µM	> 100 µM	> 100 µM	> 100 µM	> 100 µM	> 100 µM	> 100 µM	> 100 µM	> 100 µM	> 100 µM	–	–	–	–	–	–	–	–	–	–
COC(=O)Cc1cc(OC)c(OC)cc1Br	> 100 µM	> 100 µM	> 100 µM	> 100 µM	> 100 µM	> 100 µM	> 100 µM	> 100 µM	> 100 µM	> 100 µM	–	–	–	–	–	–	–	–	–	–
COc1ccc(-c2[nH]ncc2-c2cc3c(c(OC)c2)OCC(=O)N3)cc1	> 100 µM	> 100 µM	> 100 µM	41.5 µM	> 77.7 µM	> 100 µM	53.8 µM	15.2 µM	> 100 µM	> 54 µM	7.59 µM	0.378 µM	0.715 µM	1.66 µM	1.46 µM	0.63 µM	1.44 µM	0.398 µM	5.19 µM	0.356 µM
C=C(CNC(=O)Nc1ccc(-c2ccccc2)cc1)c1ccc(C(=O)Nc2ccccc2N)cc1	> 100 µM	> 100 µM	74.8 µM	> 100 µM	> 100 µM	> 100 µM	> 100 µM	> 100 µM	> 100 µM	> 100 µM	> 100 µM	> 100 µM	25.9 µM	> 100 µM	85.3 µM	> 100 µM	> 100 µM	> 100 µM	48.3 µM	> 100 µM
CC(C)[C@](O)(c1ccc2cc(OC(F)F)c(OC(F)F)cc2c1)c1cn[nH]n1	38.4 µM and 35.7 µM	36.3 µM and 46.6 µM	38.6 µM and 45.5 µM	55.4 µM and 46.1 µM	40.1 µM and 35.2 µM	36.8 µM and 32.2 µM	29.1 µM and 30.1 µM	33.4 µM and 29 µM	36.9 µM and 40.8 µM	44.9 µM and 38.5 µM	17 µM and 12.6 µM	16 µM and 20.8 µM	14.6 µM and 17.7 µM	23.1 µM and 18.9 µM	16.8 µM and 15.8 µM	19.2 µM and 15.6 µM	12.8 µM and 12.1 µM	15.8 µM and 14 µM	18.5 µM and 19.6 µM	21 µM and 18.5 µM
CCOc1ccc2nc(NC(=O)C(=O)C(C(=O)c3ccccc3-c3ccccc3)C3OC(=O)c4ccccc43)sc2c1 (configuration not stated)	41.9 µM	43.6 µM	> 72.6 µM	21.5 µM	47.4 µM	51.9 µM	52.8 µM	> 93.8 µM	54.2 µM	60.1 µM	–	–	–	–	–	–	–	–	–	–
C=CC(=O)Nc1ccc(Nc2nccc(-c3ccc(N4CCCC4)c(C#N)c3)n2)cc1	> 25 µM	> 25 µM	> 25 µM	> 25 µM	> 25 µM	> 25 µM	> 25 µM	> 25 µM	13.1 µM	> 25 µM	10.5 µM	> 25 µM	> 25 µM	> 25 µM	> 25 µM	15.8 µM	1.06 µM	9.44 µM	4 µM	21.7 µM
OCCOc1ccc(-c2cc(-c3ccccn3)nc(-c3ccccn3)c2)cc1	> 100 µM	> 100 µM	2.17 µM	4.55 µM	> 100 µM	> 100 µM	1 µM	> 100 µM	> 100 µM	> 100 µM	–	–	–	–	–	–	–	–	–	–
CC/C(Cc1ccccc1)=C(\c1ccc(OCCN2CCCCCC2)cc1)c1ccc(OC(=O)NCc2ccccc2)cc1	16 µM	3.53 µM	15.2 µM	17.5 µM	13.8 µM	6.71 µM	7.98 µM	13.2 µM	5.17 µM	2.49 µM	8.2 µM	1.34 µM	7.59 µM	8.14 µM	5.89 µM	1.83 µM	2.03 µM	6.5 µM	1.44 µM	1.16 µM
Nc1ncnc2c1ncn2C1OC(COP(=O)(O)CP(=O)(O)O)C(O)C1O (configuration not stated)	> 100 µM	> 100 µM	> 100 µM	> 100 µM	> 100 µM	> 100 µM	> 100 µM	> 100 µM	> 100 µM	> 100 µM	–	–	–	–	–	–	–	–	–	–
CC1=NN(C(=O)c2ccccc2O)C(=O)/C1=C/c1ccc([N+](=O)[O-])cc1	> 100 µM	> 100 µM	> 100 µM	7.93 µM and 25.1 µM	4.77 µM	> 26.5 µM	1.88 µM	> 100 µM	> 100 µM	> 100 µM	4.83 µM	4.22 µM	1.6 µM	0.23 µM	0.654 µM	2.06 µM	0.358 µM	0.379 µM	4.7 µM	3.15 µM
Cc1ccc(C(=O)O/N=C2/CCCC/C2=C\c2ccccc2)cc1	> 100 µM	> 100 µM	> 100 µM	> 100 µM	> 100 µM	> 100 µM	31.5 µM	> 100 µM	65.3 µM	> 100 µM	–	–	–	–	–	–	–	–	–	–
CNC(=O)c1cc(COc2nnc(Nc3ccc(Cl)cc3)c3ccoc23)ccn1	11.8 µM and > 10 µM	31.2 µM and > 10 µM	13.2 µM and > 10 µM	13.1 µM and > 10 µM	37.8 µM and > 10 µM	27.2 µM and > 10 µM	15 µM and > 10 µM	24.9 µM and > 10 µM	27.7 µM and > 10 µM	56.6 µM and > 10 µM	3.59 µM and 8.84 µM	9.45 µM and > 10 µM	3.48 µM and 9.73 µM	3.01 µM and 8.73 µM	11.1 µM and > 10 µM	8.86 µM and > 10 µM	3.3 µM and 4.57 µM	6.39 µM and > 10 µM	7.98 µM and > 10 µM	21.1 µM and > 10 µM
O=C(CC1=Nc2nnc(-c3nnc4n3C(=O)C(CC(=O)c3cccnc3)=N4)n2C1=O)c1cccnc1	> 100 µM	> 100 µM	> 100 µM	> 100 µM	> 100 µM	> 100 µM	> 100 µM	> 100 µM	> 100 µM	> 100 µM	–	–	–	–	–	–	–	–	–	–
Cc1c2cnccc2c(C)c2c1c1cc(C3OCCCO3)ccc1n2C	4.14 µM	2.12 µM	1.76 µM	0.962 µM	1.21 µM	1.3 µM	2.27 µM	1.9 µM	1.68 µM	1.64 µM	0.541 µM	0.363 µM	0.325 µM	0.213 µM	0.215 µM	0.192 µM	0.278 µM	0.348 µM	0.459 µM	0.205 µM
CCC1(C)NN=c2s/c(=C/c3ccc(OC)cc3)c(=O)n2N1 (configuration not stated)	> 100 µM	> 100 µM	> 100 µM	> 100 µM	> 100 µM	> 100 µM	> 100 µM	> 100 µM	> 100 µM	> 100 µM	–	–	–	–	–	–	–	–	–	–
CO[C@H](C(=O)[C@@H](O)[C@@H](C)O)[C@@H]1Cc2cc3cc(O[C@H]4C[C@@H](O[C@H]5C[C@@H](O)[C@H](O)C(C)O5)[C@H](O)C(C)O4)c(C)c(O)c3c(O)c2C(=O)[C@H]1O[C@H]1C[C@@H](O[C@H]2C[C@@H](O[C@H]3C[C@@H](OC)[C@H](O)C(C)O3)[C@@H](O)C(C)O2)C(O)(O)C(C)O1 (some centres not stated)	> 24.1 µM	5.01 µM	> 25 µM	0.461 µM	4.22 µM	> 25 µM	2.84 µM	> 25 µM	1.11 µM	> 25 µM	0.15 µM	0.212 µM	0.113 µM	0.0545 µM	0.176 µM	0.112 µM	0.209 µM	0.0601 µM	0.0439 µM	0.164 µM
Cn1cc(-c2nonc2-c2c[nH]c3ccccc23)c2ccccc21	24.4 µM	10.8 µM	18.4 µM	24.3 µM	19.5 µM	12.1 µM	7.65 µM	2.97 µM	18.1 µM	15.6 µM	1.55 µM	0.35 µM	0.563 µM	1.43 µM	0.85 µM	0.477 µM	0.323 µM	0.352 µM	1.45 µM	0.335 µM
CCOc1ccccc1NC(=O)CCC(=O)OC	> 100 µM	> 100 µM	> 100 µM	> 100 µM	> 100 µM	> 100 µM	> 100 µM	> 100 µM	> 100 µM	> 60.5 µM	–	–	–	–	–	–	–	–	–	–

Source: PubChem BioAssay (NCI)
